The source of these data is patent US20100015220A1, “NIACIN AND NSAID COMBINATION THERAPY” (priority 2008, published 2010).

Series [1] can be described thus: ASA and salicylic acid plasma pharmacokinetic profiles. The series is classed as in vivo. As to conditions: for aspirin plasma AUC / salicylic acid plasma AUC: in vivo; for Cmax: plasma, oral.
Series [2] is described as follows: Example 2 safety: monitoring of adverse events. The format is in vivo, healthy volunteers. Here is the method: Safety was assessed be assessing flushing episodes and by monitoring of other adverse events.
An adverse event (AE) is any unfavorable and unintended sign including an abnormal laboratory finding, symptom, or disease temporally associated with the use of a medical product, whether or not considered related to the study drug. The severity rating was scaled based on the following categories: • mild—awareness of a symptom, but easily tolerated; • moderate—discomfort enough to cause interference with usual activity; • severe—incapacitating with inability to work or perform usual activity.
A total of 54 subjects were enrolled in the study. Forty-six subjects completed all three dosing periods and have contributed data to the evaluation of flushing parameters. A total of 51 subjects were exposed to Treatment A (240 mg ASA), 50 to B (60 mg ASA), and 50 to C (Placebo); these subjects comprise the population for evaluation of safety parameters.

Series [3] has as its system flushing induced by nicotinic acid. As to conditions: guinea pigs; aspirin 50, 100 or 200 mg/kg; cited from earlier work.
Series [4] relates to flushing associated with single-dose administration of extended-release niacin (Niaspan). The series is described as follows: Example 2 three-way cross-over study: anti-flushing effects of two aspirin regimens versus placebo on extended release niacin. The series is classed as in vivo, healthy volunteers. As to conditions: for subjects who experienced a flushing response: 2 g extended-release niacin; for subjects who experienced a flushing response / total number of flushing episodes: 46 subjects; for maximum severity of flushing, mean / maximum severity of flushing, median: 100 mm VAS; for total cumulative duration of flushing, mean / total cumulative duration of flushing, median: start of first episode to end of last. The source says:
To assess the ability of two aspirin regimens to decrease flushing associated with single-dose administration of extended-release niacin (Niaspan®). […] Study subjects remained housed overnight at the clinical research center following niacin dosing to carefully monitor for flushing reactions and other adverse events. Each subject received all three dosing regimens in a randomized, three-way cross-over fashion. Subjects have screening procedures performed up to 4 weeks prior to Period 1 Day (the first dosing visit), including assessment of flushing response to a 500 mg immediate release niacin (Niacor®) challenge. All qualified subjects received three single doses of extended-release niacin at least one week apart during three treatment periods. Subjects were randomized to receive one of the two aspirin regimens or placebo prior to their niacin dose on Day 1 of each treatment period. At randomization, subjects received blinded study medication to be taken in the evening of days -3 and -2. For each treatment period, subjects checked into the clinic on Day -1 and remained housed for at least 18 hours after niacin dosing on Day 1. Prior to leaving the clinic during treatment periods 1 and 2, subjects received blinded study medication to be taken in the morning and evening of Days -3 and -2 of the next treatment period. End of study procedures was performed on Day 2 of treatment period 3 240 mg […]. for three days prior to niacin dosing plus 30 mg ASA per hour for eight hours, starting 4 hours prior to niacin dosing. 10 mg ASA per hour for 6 hours prior to niacin dosing. This regimen tested whether a lower dose of aspirin without an aspirin lead-in, and given entirely prior to niacin dosing, was sufficient to diminish flushing. No aspirin. This regimen acted as the negative control. Niaspan®, as well as blinded aspirin or placebo, for oral administration during the inpatient portion of each treatment period (Day -1 and Day 1) were dispensed by study pharmacist and administered to the subject by study personnel. Aspirin or placebo were administered in the evening on Day -1 and hourly on Day 1 for 6 hours before, concurrently with, and hourly for 3 hours after the Niaspan® dose. Episodes of flushing (including burning, itching, crawling sensation, pain and/or reddening of the skin, fever-like sensation) were recorded with start and end time maximum severity, and individual symptoms captured. A 100 mm visual analog scale (0=no flushing symptoms; 100=intolerable symptoms) was used to capture severity as reported by the subject. For each subject during each treatment period, the number of episodes of flushing, maximum severity of all episodes of flushing, and total duration of flushing, from start of the first episode to the end of the last episode, was calculated and summarized by treatment regimen. […] A total of 54 subjects were enrolled in the study. Forty-six subjects completed all three dosing periods and have contributed data to the evaluation of flushing parameters. A total of 51 subjects were exposed to Treatment A (240 mg ASA), 50 to B (60 mg ASA), and 50 to C (Placebo); these subjects comprise the population for evaluation of safety parameters.

The test system of series [5] is flushing following niacin dosing. The series is described as follows: Example 1 clinical study: anti-flushing effect of aspirin regimen on immediate release niacin. The format is in vivo, healthy volunteers. As to conditions: 243 mg aspirin per day for four days plus 20 mg/hr from 6 h before to 5 h after immediate release niacin; vs placebo. The source says: Provided is the clinical study to establish an anti-flushing effect of aspirin regimen on immediate release niacin. The primary endpoints for this study were treatment group comparisons of: • incidence, duration and severity of flushing following niacin dosing; • routine monitoring adverse events. Subjects have screening procedures performed up to 4 weeks prior to the first dosing visit. All qualified subjects received two single doses of niacin one week apart. Subjects were randomized to receive either an aspirin regimen or a placebo regimen prior to their niacin dose on day 1 and the opposite regimen prior to their niacin dose on day 8. At randomization, subjects received blinded study medication to be taken in the morning and evening of days −4, −3, −2 and −1. Subjects checked into the clinic on day −1 and remained housed for approximately 24 hours after niacin dosing on day 1. Prior to leaving the clinic, they received blinded study medication to be taken on the morning and evening of days 4, 5, 6, and 7. Subjects returned to the clinic on day 7 and remained housed for approximately 24 hours after niacin dosing on day 8. […] Episodes of flushing (including burning, itching, crawling sensation, pain and/or reddening of the skin, fever-like sensation) were recorded with start and end time and maximum severity captured. […]

Series [6] has as its system flushing induced by nicotinic acid. As to conditions: humans; total 975 mg aspirin (650 mg at 1 hr and 325 mg at 0.5 hr prior to high dose nicotinic acid); cited from earlier work.
The conditions of series [7]: in vivo; cited from earlier work.

SMILES strings stand for the structures. Like-named read-outs stand apart in the source and are kept apart here.

Take `CC(=O)Oc1ccccc1C(=O)O` [ASA, acetyl salicylic acid]: in series [1] (160 mg), the “aspirin plasma AUC” value is recorded as ~800 ngml^−1h and the “salicylic acid plasma AUC” value is recorded as ~11000 ngml^−1h. For the same compound, in series [1] (240 mg), the “aspirin plasma AUC” value is listed as ~1200 ngml^−1h and the “salicylic acid plasma AUC” value was ~16300 ngml^−1h. For the same compound, in series [1] (324 mg), the “aspirin plasma AUC” value was ~1600 ngml^−1h and the “salicylic acid plasma AUC” value is recorded as ~22000 ngml^−1h. Further, in series [2] (60 mg ASA), the “adverse events involving gastrointestinal disorders” value is 3 subjects and the headache is listed as 5 subjects. Besides, in series [2] (60 mg ASA (n = 50)), the “Number of AEs” value is listed as 14, the “Subjects with AEs Leading to Withdrawal” value is 0 (0.0%) subjects (%), the “Subjects with Serious AEs” value is given as 0 (0.0%) subjects (%) and the “Subjects with Severe AEs” value was 0 (0.0%) subjects (%). In series [2] (60 mg ASA (n = 50)), the “Subjects with any AE” value is on record as 10 (20.0%) subjects (%) and the “Subjects with any CTM-related AE” value is reported as 7 (14.0%) subjects (%). Also, in series [2] (240 mg ASA), the “adverse events involving gastrointestinal disorders” value turned out to be 4 subjects and the headache is given as 4 subjects. Moreover, in series [2] (240 mg ASA (n = 51)), the “Number of AEs” value is 14, the “Subjects with AEs Leading to Withdrawal” value is 0 (0.0%) subjects (%), the “Subjects with Serious AEs” value is 0 (0.0%) subjects (%) and the “Subjects with Severe AEs” value is on record as 0 (0.0%) subjects (%). Besides, in series [2] (240 mg ASA (n = 51)), the “Subjects with any AE” value was 12 (23.5%) subjects (%) and the “Subjects with any CTM-related AE” value is reported as 7 (13.7%) subjects (%). The “flushing induced by nicotinic acid” value in series [3] is “reduce the flushing induced by nicotinic acid”. In series [4] (60 mg ASA), the “episodes of flushing per subject, mean” value amounted to 1.4; the “total number of flushing episodes” value came out at 64 episodes; the “maximum severity of flushing, mean” value is 36.1 mm; the “maximum severity of flushing, median” value worked out at 35.0 mm. Further, in series [4] (60 mg ASA), the “total cumulative duration of flushing, mean” value was found to be 101.8 min and the “total cumulative duration of flushing, median” value is 84.0 min. The “subjects who experienced a flushing response” value in series [4] (60 mg ASA (Treatment B)) amounted to 87%. Moreover, in series [4] (60 mg ASA compared to placebo), the “incidence of itching, crawling, reddening and fever-like sensation of the skin” value is “occurred less frequently”. Moreover, the “times more likely to have fewer episodes of flushing” value (from here on “times more likely”) in series [4] (60 mg ASA compared to placebo (p>0.10)) came out at 1.3 times. In addition, in series [4] (240 mg ASA), the “episodes of flushing per subject, mean” value is recorded as 1.1; the “total number of flushing episodes” value stood at 52 episodes; the “maximum severity of flushing, mean” value was 25.8 mm; the “maximum severity of flushing, median” value was determined as 20.0 mm. In series [4] (240 mg ASA), the “total cumulative duration of flushing, mean” value is listed as 67.1 min and the “total cumulative duration of flushing, median” value worked out at 44.5 min. Besides, the “subjects who experienced a flushing response” value in series [4] (240 mg ASA (Treatment A)) was found to be 74%. Moreover, the “incidence of individual flushing symptoms” value in series [4] (240 mg ASA compared to 60 mg ASA or placebo) is “lower incidence of each flushing symptom”. Besides, the “times more likely” value in series [4] (240 mg ASA compared to 60 mg ASA, multinomial logistic regression (p=0.05)) is recorded as 1.7 times. For the same compound, the “times more likely” value in series [4] (240 mg ASA compared to placebo, multinomial logistic regression (p=0.01)) came to 2.1 times. In series [5], the “reduction in mean flush intensity” value was 53% and the “reduction in median flush intensity” value turned out to be 77%. Moreover, in series [6], the “flushing induced by nicotinic acid” value is “reduce the flushing induced by nicotinic acid”.
For the compound `O=C(O)c1ccccc1O` [salicylic acid], the Cmax is ~2600 ng/mL in series [1] (160 mg, fast release rate); ~1700 ng/mL in series [1] (160 mg, intermediate release rate); ~1200 ng/mL in series [1] (160 mg, slow release rate); ~3700 ng/mL in series [1] (240 mg, fast release rate); ~2600 ng/mL in series [1] (240 mg, intermediate release rate); ~1800 ng/mL in series [1] (240 mg, slow release rate). The maximum concentration (Cmax) in series [1] (324 mg, fast release rate) is ~5000 ng/mL; in series [1] (324 mg, intermediate release rate) it was ~3500 ng/mL; in series [1] (324 mg, slow release rate), ~2400 ng/mL.
For the compound `O=C(O)c1cccnc1` [Niacin, nicotinic acid], the “reduces Lp(a) levels” value in series [7] was “about 40%”.

Usually Cmax stands for the highest concentration seen after dosing.
